{"source": "patent US12534487B2", "about": "“Compounds for use as iron(III) MRI contrast agents” (The Research Foundation for The State University of New York, priority 2017, dated 2026)", "key": {"[1]": {"experiment": "Phantom (in vitro) MR imaging at 4.7 T: T1 and T2 relaxivity", "assay_type": "physicochemical", "settings": "neutral pH, Hepes buffer, 37° C.", "method": "Eq. 2 predicts that greater numbers of bound water molecules and rapid ligand exchange rate constants (short lifetimes for bound water (Tm)) are advantageous. […] There is an analogous relationship for second-sphere waters although the number and residence time is not well defined. The R1 and R2 relaxivity (from T1 and T2 relaxation rate constants at 4.7 T at 37° C. is shown for several complexes in FIG. 13 and FIG. 14. Data on a 3 Tesla MRI scanner are shown in FIG. 21. Table 1 summarizes R1 and R2 relaxivity data for several Fe(III) complexes.\nPreparation of Samples for Phantom MR Imaging: Samples for phantom imaging experiments contained 50-500 μM complex, 20 mM HEPES and 100 mM NaCl. […]\nPhantom (in vitro) imaging at 4.7 T. MRI acquisitions were performed using a General Electric 4.7T/33 cm horizontal bore magnet (GE NMR instruments, Fremont, CA) incorporating AVANCE digital electronics (Bruker BioSpec platform with ParaVision v 3.0.2 acquisition software, Bruker Medical, Billerica, MA). […] Signal intensities at each repetition time were sampled by taking the mean intensity within regions of interest (ROI's) using commercially available image processing software (Analyze 7.0, AnalyzeDirect, Overland, KS), and R1 and SMAX were calculated by nonlinear fitting of the equation using Matlab's Curve Fitting Toolbox (Matlab 7.0, MathWorks Inc., Natick, MA). […]"}, "[2]": {"tested_on": "mice", "experiment": "In vivo MRI contrast enhancement in mice at 4.7 T", "parameters": "species or system mouse", "method": "The necessary solubility of the complexes depends on their effectiveness in producing contrast. For Fe(III) T1 contrast agents that have good relaxivity, the complexes need 100 μM-2 mM solubility. However, other additives such as human serum albumin (has) or meglumine may be used to increase solubility and/or increase relaxivity. Solubility is generally measured in aqueous solution at near neutral pH (e.g., 6.5 to 7.5, including all 0.1 pH values and ranges therebetween) in 100 mM NaCl with 25 mM carbonate and 0.4 mM phosphate. The dose of the composition to be used will necessarily be dependent upon the needs of the individual to whom the composition of the disclosure is to be administered. These factors include, but are not necessarily limited to the weight, age, sex, and medical history of the individual. Shown in FIGS. 15, 16, 17, 18, 19, 20 are data from in vivo MRI studies done in mice. The contrast agent, Fe(TOB) was injected at 0.20 mL of 6.3 mM Fe-TOB-HSA (10.5 mg of HAS or two equivalents of megluamine). […] In vivo imaging in mice. Efficacy of the Fe(III) complexes for in vivo contrast enhancement was studied on at 4.7 T Bruker preclinical MRI in a mouse model (BABC/cJ, Jackson Laboratory). Sealed phantoms were included for imaging sessions for signal normalization. Prior to administration of contrast agents, scans were acquired to serve as baseline values of enhancement. […] Compounds were injected intravenously via tail vein at a dose of 50 μmol [Fe]/kg and MR data were acquired continuously for up to 1 hour after injection to study distribution and clearance kinetics. Thus, 0.2 mL of a 6 mM stock solution was injected into the mouse or 0.05 mmol/Kg. Additional scans were acquired at 3 and 6 hours post-injection to characterize slower clearance rates by the biliary system. The FDA-approved […] contrast agent gadopentetate dimeglumine (Gd-DTPA, Magnevist®) was injected into a separate cohort of mice at 50 μmol [Gd]/kg for comparison. For SPGR datasets, signal intensities were normalized to the phantoms and signal increase for each organ was measured, as well as an increase in contrast-to-noise ratios as compared to back muscle. Fe(III) concentrations were estimated by calculating the increase in T1 rates and dividing by the compound's relaxivity value as determined in vitro."}, "[3]": {"tested_on": "brain tumors", "experiment": "MRI scans of mice with brain tumors", "assay_type": "in vivo, mice (C57BL/6NCr)", "settings": "C57BL/6NCr mice, 0.05 or 0.1 mmol/kg", "method": "Mice were dosed with Fe(TOB) at 0.05 mmol/kg Fe(TOB) complex or 0.1 mmol/kg Fe(TOB) complex."}, "[4]": {"experiment": "Benzoate oxidation with peroxide and ascorbate (ROS production)", "settings": "50 μM complex, 50 μM H2O2, 50 μM ascorbate, pH 7.2; [Fe(EDTA)]− oxidation set at 100%", "method": "Benzoate oxidation with 50 μM complex, 50 μM H2O2 and 50 μM ascorbate at pH 7.2. [Fe(EDTA)]^− oxidation is set at 100%.\nIt is desirable that the Fe(III) complex remain in the trivalent oxidation state and not be reduced by, for example, peroxide, superoxide, ascorbate, or by glutathione at concentrations present in the extracellular medium of cells such as, for example, mammalian cells (e.g., human cells). Normally, a redox potential more negative than zero mV (<0 mV) versus NHE is sufficient. If the complex were to be reduced to Fe(II) and the Fe(II) complex and the complex has a positive redox potential versus NHE, reactive oxygen species may be produced, for example, as shown in FIG. 8. For example, [Fe(EDTA)]—has a redox potential of approximately 300 mV and produces ROS as shown by the assay in FIG. 11."}, "[5]": {"settings": "stated in text without conditions; cited from earlier work"}, "[6]": {"settings": "50 μmol/kg i.v., 4.7 T, compared with the other agents"}}, "data": [{"smiles": "CC([O-])CN1CCN(Cc2ccccc2)CCN(CC(C)[O-])CC1.[Fe+3]", "note": "(stereo not drawn) [Fe(TOB)]", "values": [{"measurement": "R1 (T1 relaxivity)", "setting": "[1]; 4.7 Tesla MRI scanner, complex alone", "result": 2.5, "unit": "mM⁻¹ s⁻¹"}, {"measurement": "R1 with HSA", "setting": "[1]; 4.7 Tesla, with human serum albumin", "result": 3.4, "unit": "mM⁻¹ s⁻¹"}, {"measurement": "T1 contrast in kidneys", "setting": "[2]; [6]", "result": "greater contrast than Gd(DTPA) in kidney and liver"}, {"measurement": "T1 contrast in liver", "setting": "[2]; [6]", "result": "greater contrast than Gd(DTPA) in kidney and liver"}, {"measurement": "Elimination by the biliary system (gall bladder enhancement)", "setting": "[2]; 50 μmol/kg, 30′ and 4 h post-injection", "result": "strong enhancement of the gall bladder"}, {"measurement": "Removal from the blood", "setting": "[2]; 50 μmol/kg, vs. Gd-DTPA", "result": "faster removal from the blood"}, {"measurement": "Uptake in kidneys and liver", "setting": "[2]; 50 μmol/kg, vs. Gd-DTPA", "result": "Greater uptake"}, {"measurement": "Tissue with highest signal (T1 relaxivity differences in tissue)", "setting": "[2]; 0.20 mL of 6.3 mM Fe-TOB-HSA, 30 minute period", "result": "highest signal is observed in the kidney cortex"}, {"measurement": "Contrast of brain tumors", "setting": "[3]", "result": "produces contrast of brain tumors in mice"}]}, {"smiles": "CNC[C@H](O)[C@@H](O)[C@H](O)[C@H](O)CO.CNC[C@H](O)[C@@H](O)[C@H](O)[C@H](O)CO.O=C([O-])CN(CCN(CC(=O)[O-])CC(=O)O)CCN(CC(=O)[O-])CC(=O)O.[Gd+3]", "note": "[Gd(DTPA), gadopentetate dimeglumine, reference compound]", "values": [{"measurement": "T1 contrast in blood", "setting": "[2]; [6]", "result": "produces larger contrast in blood"}]}, {"smiles": "O=C([O-])CN(CCN(CC(=O)[O-])CC(=O)[O-])CC(=O)[O-].[Fe+3]", "note": "[[Fe(EDTA)]^−]", "values": [{"measurement": "Benzoate oxidation / ROS production", "setting": "[4]", "result": "produces ROS"}, {"measurement": "redox potential", "setting": "[5]", "result": "approximately 300 mV"}]}]}
